System: SEM cells
Test: cell viability relative to DMSO control; higher = less cytotoxic
Conditions: 48 h
Summary of the method: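 NOMO1 or SEM cells were plated at 500 cells/well and P12-Ichikawa cells at 1000 cells/well in 1536-well plates (5 μl), after each leukemia line had been adapted for at least four passages in each medium. Pin dosing delivered library compounds in DMSO at 11 threefold concentrations, 47 μM to 0.79 nM. CellTiter-Glo One luminescence was read after 48 h at 37°C. Viability is reported as a per-plate percentage of DMSO wells, with cell-free wells as background.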

[1] = HPLM + 10% dialyzed FBS, 0.000781 µM
[2] = HPLM + 10% dialyzed FBS, 0.00234 µM
[3] = HPLM + 10% dialyzed FBS, 0.00702 µM
[4] = HPLM + 10% dialyzed FBS, 0.0211 µM
[5] = HPLM + 10% dialyzed FBS, 0.0632 µM
[6] = HPLM + 10% dialyzed FBS, 0.19 µM
[7] = HPLM + 10% dialyzed FBS, 0.569 µM
[8] = HPLM + 10% dialyzed FBS, 1.71 µM
[9] = HPLM + 10% dialyzed FBS, 5.12 µM
[10] = HPLM + 10% dialyzed FBS, 15.4 µM
[11] = HPLM + 10% dialyzed FBS, 46.1 µM
[12] = RPMI 5 mM glucose + 10% FBS, 0.000781 µM
[13] = RPMI 5 mM glucose + 10% FBS, 0.00234 µM
[14] = RPMI 5 mM glucose + 10% FBS, 0.00702 µM
[15] = RPMI 5 mM glucose + 10% FBS, 0.0211 µM
[16] = RPMI 5 mM glucose + 10% FBS, 0.0632 µM
[17] = RPMI 5 mM glucose + 10% FBS, 0.19 µM
[18] = RPMI 5 mM glucose + 10% FBS, 0.569 µM
[19] = RPMI 5 mM glucose + 10% FBS, 1.71 µM
[20] = RPMI 5 mM glucose + 10% FBS, 5.12 µM
[21] = RPMI 5 mM glucose + 10% FBS, 15.4 µM
[22] = RPMI 5 mM glucose + 10% FBS, 46.1 µM
[23] = RPMI 5 mM glucose + 10% dialyzed FBS, 0.000781 µM
[24] = RPMI 5 mM glucose + 10% dialyzed FBS, 0.00234 µM
[25] = RPMI 5 mM glucose + 10% dialyzed FBS, 0.00702 µM
[26] = RPMI 5 mM glucose + 10% dialyzed FBS, 0.0211 µM
[27] = RPMI 5 mM glucose + 10% dialyzed FBS, 0.0632 µM
[28] = RPMI 5 mM glucose + 10% dialyzed FBS, 0.19 µM
[29] = RPMI 5 mM glucose + 10% dialyzed FBS, 0.569 µM
[30] = RPMI 5 mM glucose + 10% dialyzed FBS, 1.71 µM
[31] = RPMI 5 mM glucose + 10% dialyzed FBS, 5.12 µM
[32] = RPMI 5 mM glucose + 10% dialyzed FBS, 15.4 µM
[33] = RPMI 5 mM glucose + 10% dialyzed FBS, 46.1 µM

Structure (SMILES)	cell viability [1] [%]	cell viability [2] [%]	cell viability [3] [%]	cell viability [4] [%]	cell viability [5] [%]	cell viability [6] [%]	cell viability [7] [%]	cell viability [8] [%]	cell viability [9] [%]	cell viability [10] [%]	cell viability [11] [%]	cell viability [12] [%]	cell viability [13] [%]	cell viability [14] [%]	cell viability [15] [%]	cell viability [16] [%]	cell viability [17] [%]	cell viability [18] [%]	cell viability [19] [%]	cell viability [20] [%]	cell viability [21] [%]	cell viability [22] [%]	cell viability [23] [%]	cell viability [24] [%]	cell viability [25] [%]	cell viability [26] [%]	cell viability [27] [%]	cell viability [28] [%]	cell viability [29] [%]	cell viability [30] [%]	cell viability [31] [%]	cell viability [32] [%]	cell viability [33] [%]
O=C(/C=C/c1c(C(=O)[O-])[nH]c2cc(Cl)cc(Cl)c12)Nc1ccccc1	89.9	120	122	122	127	114	123	132	124	115	73.1	110	113	106	102	118	112	121	122	129	118	65.1	95.9	103	110	119	104	125	101	121	128	118	60
C[C@H]1C[C@H]2[C@@H]3CCC4=CC(=O)C=C[C@]4(C)[C@@]3(F)[C@@H](O)C[C@]2(C)[C@@]1(O)C(=O)CO	86.1	105	101	92.8	99.5	78.5	68.9	27.5	67.1	31.3	66	101	110	106	105	91.6	67.3	66.7	26.4	69.6	22.8	64.4	108	140	114	93.6	87.1	72.6	72.3	24	53.2	23.9	74
CC[C@H]1/C=C\C=C/C[C@@H](C)[C@H](O)[C@@](C)(O)C(=O)[C@@H](C)[C@H](O)[C@@H](C)C(=O)[C@@H](C)[C@H](O)[C@@H](C)/C=C/C(=O)O[C@@H]2[C@H](C)[C@H](CC1)O[C@]1(CC[C@H](C)[C@H](C[C@@H](C)O)O1)[C@H]2C	78.7	94.1	105	84.3	86.4	98.6	95.5	63.4	40.9	56.5	7.57	81.1	93.9	92.5	81.2	90.3	105	97.7	58.2	28.8	34.6	7.26	90.9	97	89	97.4	85.8	94.2	100	54.7	43.2	36.4	8.78
Clc1cc(Cl)cc(CNc2ncncc2-c2ccc3c(c2)OCO3)c1	93.3	101	95.7	97.4	89	104	92.2	105	90.4	89.1	29.7	100	97.4	98.4	94.5	92.7	110	103	86.6	92.3	86.6	5.5	90.5	95.3	102	99.7	90.5	96.8	80.4	100	105	86.2	28.3
CC(=O)Nc1ccc([C@H](C)C(=O)Nc2ncc(C(C)C)s2)cc1	98.9	102	106	95.9	104	105	105	95.1	61.9	8.42	4.85	107	112	132	121	117	108	123	114	76	8.73	4.33	95.6	79.1	97.4	97.2	109	97.2	110	99.2	64.6	8.82	4.36
O=C(CO)N1CCC(c2n[nH]c(-c3ccc(Cl)cc3)c2-c2ccncn2)CC1	102	119	119	112	110	104	98.7	101	75.6	64.9	31	114	128	123	127	107	123	109	106	85.3	49.4	16	131	108	108	141	110	119	128	100	79.7	51.5	20.1
Cc1nccn1CC1CCc2c(c3ccccc3n2C)C1=O (centres undefined)	118	120	135	132	142	120	110	117	104	116	92	121	119	127	114	115	105	127	104	108	109	85.4	–	–	–	–	–	–	–	–	–	–	–
Cc1cccc(C)c1OCC(=O)N[C@@H](Cc1ccccc1)[C@@H](O)C[C@H](Cc1ccccc1)NC(=O)[C@H](C(C)C)N1CCCNC1=O	80.3	94.2	86.7	96.4	100	81.4	85.6	76	78.5	65.4	39	97.7	94.2	102	94.8	108	103	95.9	90.9	79.6	77.1	36.7	79.8	101	93.7	102	104	100	107	104	85.5	69.1	31.2
COc1cc(Nc2ncc(F)c(Nc3ccc4c(n3)NC(=O)C(C)(C)O4)n2)cc(OC)c1OC	87.1	99	106	123	106	103	95.8	57.7	6.83	4.48	4.63	57.5	73	70.6	70.4	68.4	70.6	55	34.9	3.27	3.07	3.1	95	111	101	95.2	89.8	104	91.2	49.4	9.48	3.83	4.35
CC1=CC=CC=C1CN2C(=O)C/3=C(/CCN(CC4=CC=CC=C4)C3)N\5CC\N=C25	113	121	125	115	117	120	115	110	94	25.3	19.6	129	119	114	101	114	109	97.1	95.9	50.9	13.2	9.39	127	121	119	119	141	119	136	133	58.4	19.6	19.8
CN(C)C(=O)c1ccc([S+](=O)([O-])c2ccc(NC(=O)[C@@](C)(O)C(F)(F)F)c(Cl)c2)cc1	98.1	105	104	112	110	104	129	120	118	116	80	95.3	122	110	109	124	108	112	123	120	24.3	4.66	99.3	98.8	108	102	107	88	103	111	111	72.8	20.9
Oc1ccc(/C=C/c2cc(O)cc(O)c2)cc1	99.5	113	106	104	115	110	112	121	118	97.6	10.4	105	107	85.6	100	103	108	111	94.9	101	22.7	5.07	114	115	97.2	98.4	100	92.8	103	103	111	73.7	7.98
Cc1c(Cn2c(C)nc3c(C(=O)O)cc(N4CCOCC4)cc32)cccc1C(F)(F)F	84.5	101	109	111	101	97.1	115	109	103	117	103	93.2	115	102	106	103	112	119	114	107	89.1	88.5	94.1	105	100	109	112	95.5	103	95.5	90.1	92.3	79.8
O=C(Nc1cccc(Nc2ncc(Br)c(NCCc3cnc[nH]3)n2)c1)N1CCCC1	77.4	78.4	79.3	72.1	67.4	47.5	32.7	17.4	9.22	5.65	1.1	87.7	77.9	80.5	75.9	69.1	41	21.1	8.73	3.21	1.59	1.07	82.5	62.9	71	64.2	66.9	38.6	26.6	12.8	7.16	3.89	1.39
O=C(/C=C/c1cccc([S+](=O)([O-])Nc2ccccc2)c1)NO	113	119	122	129	124	75.6	58.4	26.4	12.2	8.53	8.48	106	150	124	120	118	81.1	53	26.7	10.6	8.84	8.83	95.9	123	120	113	128	83.6	52	20.9	9.84	8.65	8.77
